Data published in article PMC12040169 (PLOS Biology, 2025).

test: in vitro; details: human, hela cells, % viability

| Compound | viability at 28.5 h, 10 µM |
| --- | --- |
| Nc1ccn([C@H]2C[C@@H](O)[C@@H](CO)O2)c(=S)n1 [CBK201187] | 91.4% |
| O=C(/C=C/c1cn([C@H]2C[C@@H](O)[C@@H](CO)O2)c(=O)[nH]c1=O)ON1C(=O)CCC1=O [CBK201188] | 99.3% |
| Nc1nc2c(ccn2[C@@H]2O[C@H](CO)[C@H](O)C2O)c(=O)[nH]1 (stereo partly drawn) [CBK201190] | 92% |
| Cn1cc([C@@H]2O[C@H](CO)[C@H](O)C2O)c(=O)n(C)c1=O (stereo partly drawn) [CBK201191] | 97.1% |
| O=C1NC2=NOCCC2=CN1[C@H]1C[C@@H](O)[C@@H](CO)O1 [CBK201192] | 96.8% |
| Nc1nc(Cl)c2ncn([C@H]3C[C@@H](O)[C@@H](CO)O3)c2n1 [CBK201193] | 100% |
| O=c1ncccn1[C@@H]1O[C@H](CO)[C@H](O)C1O (stereo partly drawn) [CBK201195] | 94% |
| Cc1cn(C2CC(O)C(CNC(=O)C(F)(F)F)O2)c(=O)[nH]c1=O (stereo not drawn) [CBK201200] | 98% |
| Nc1ccn(C2CC(O)C(CO)O2)c(=O)n1 (stereo not drawn) [CBK201203] | 95.4% |
| Nc1ncc([C@@H]2O[C@H](CO)[C@H](O)C2O)c(=O)[nH]1 (stereo partly drawn) [CBK201205] | 78.1% |
| C[C@H]1CN([C@H]2C[C@@H](O)[C@@H](CO)O2)C(=O)NC1=O [CBK201206] | 96.9% |
| Nc1nc(N)c2ncn([C@H]3C[C@@H](O)[C@@H](CO)O3)c2n1 [CBK201208] | 97.4% |
| COC1C(O)C(CO)OC1n1cc(I)c(=O)[nH]c1=O (stereo not drawn) [CBK201211] | 95.1% |
| COC1C(O)C(CO)OC1n1ccc(NC(=O)c2ccccc2)nc1=O (stereo not drawn) [CBK201212] | 94.8% |
| O=C(/C=C/c1cn(C2CC(O)C(CO)O2)c(=O)[nH]c1=O)NCCNC(=O)C(F)(F)F (stereo not drawn) [CBK201214] | 98.2% |
| C=CCOc1nc2c(=O)[nH]c(NC(=O)C(C)C)nc2n1[C@H]1C[C@@H](O)[C@@H](CO)O1 [CBK201216] | 100% |
| Cc1cc2cn([C@@H]3O[C@H](CO)[C@H](O)C3O)c(=O)nc2[nH]1 (stereo partly drawn) [CBK201219] | 98% |
| O=C(Nc1ncnc2c1nc(OCc1ccccc1)n2C1CC(O)C(CO)O1)c1ccccc1 (stereo not drawn) [CBK201220] | 95.3% |
| Nc1nc(=O)n([C@H]2C[C@@H](O)[C@@H](CO)O2)cc1O [CBK201221] | 98.2% |
| Nc1ncnc2c1nc1n2[C@@H]2O[C@H](C1)[C@H](O)C2O (stereo partly drawn) [CBK201224] | 108% |
| O=c1[nH]cnc2c1ncn2[C@H]1C[C@@H](O)[C@@H](CO)O1 [CBK201225] | 99.5% |

| Compound | viability at 28.5 h, 10 µM |
| --- | --- |
| Nc1nc(=O)n([C@H]2C[C@@H](O)[C@@H](CO)O2)cc1I [CBK201226] | 90.4% |
| COC1C(O)C(CO)OC1n1cc(C)c(N)nc1=O (stereo not drawn) [CBK201227] | 108% |
| COCc1cn(C2CC(O)C(CO)O2)c(=O)[nH]c1=O (stereo not drawn) [CBK201230] | 99.8% |
| Cc1cn(C2CC(O)C(C3N(c4ccccc4)CCN3c3ccccc3)O2)c(=O)[nH]c1=O (stereo not drawn) [CBK201232] | 99.2% |
| Nc1n[nH]c(=O)c2ncn([C@H]3C[C@@H](O)[C@@H](CO)O3)c12 [CBK201233] | 91.4% |
| Cc1cnc(Cl)c2ncn([C@H]3C[C@@H](O)[C@@H](CO)O3)c12 [CBK201234] | 97.7% |
| O=c1nc2c(cn1[C@H]1C[C@@H](O)[C@@H](CO)O1)Sc1ccccc1N2 [CBK201237] | 100% |
| Nc1nc2c(ccn2[C@H]2C[C@@H](O)[C@@H](CO)O2)c(=O)[nH]1 [CBK201238] | 100% |
| NC1=NC(=O)N([C@H]2C[C@@H](O)[C@@H](CO)O2)CN1 [CBK201248] | 108% |
| O=C(NC/C=C/c1cn(C2CC(O)C(CO)O2)c(=O)[nH]c1=O)C(F)(F)F (stereo not drawn) [CBK201249] | 109% |
| Nc1ncnc2c1ncn2[C@@H]1O[C@H](CCl)[C@H](O)C1O (stereo partly drawn) [CBK201252] | 98.8% |
| COC1C(O)C(CO)OC1n1cc(F)c(=O)[nH]c1=O (stereo not drawn) [CBK201253] | 91.4% |
| O=C1C=C([C@@H]2O[C@H](CO)[C@H](O)C2O)C(=O)N1 (stereo partly drawn) [CBK201255] | 101% |
| Cc1cn(C2CC(O)C(CN=[N+]=[N-])O2)c(=O)[nH]c1=O (stereo not drawn) [CBK201256] | 102% |
| CC#Cc1cn([C@H]2C[C@@H](O)[C@@H](CO)O2)c(=O)nc1N [CBK201257] | 105% |
| NCCCCCCNc1ncnc2c1ncn2[C@H]1C[C@@H](O)[C@@H](CO)O1 [CBK201260] | 105% |
| CC(C)C(=O)Nc1nc2c(nc(OCc3ccccc3)n2C2CC(O)C(CO)O2)c(=O)[nH]1 (stereo not drawn) [CBK201264] | 91.8% |
| Cc1cn([C@@H]2O[C@H](CO)[C@H](O)C2O)c(=O)[nH]c1=O (stereo partly drawn) [CBK201265] | 101% |
| COC1C(O)C(CO)OC1n1cc(F)c(SC)nc1=O (stereo not drawn) [CBK201267] | 106% |
| COc1nc(N)nc2c1ncn2C1OC(CO)C(O)C1O (stereo not drawn) [CBK201271] | 91.6% |
| CN(C)/C=N/c1ncnc2c1nc(Br)n2C1CC(O)C(CO)O1 (stereo not drawn) [CBK201277] | 93.6% |

| Compound | viability at 28.5 h, 10 µM |
| --- | --- |
| C#CCOc1cn([C@H]2C[C@@H](O)[C@@H](CO)O2)c(=O)[nH]c1=O [CBK201278] | 91.7% |
| COC1C(O)C(CO)OC1n1cc(F)c(Oc2c(C)cc(C)cc2C)nc1=O (stereo not drawn) [CBK201279] | 98.2% |
| Cc1cn2c(nc1=O)OC[C@H]1O[C@@H]2C[C@H]1O [CBK201280] | 93.5% |
| Nc1nc(=O)[nH]c2c1ncn2[C@@H]1O[C@H](CO)[C@H](O)C1O (stereo partly drawn) [CBK201282] | 93.7% |
| CN(C)/C=N/c1nc(=O)[nH]c2c1ncn2C1CC(O)C(CO)O1 (stereo not drawn) [CBK201285] | 118% |
| Nc1nc2c(sc(=O)n2[C@@H]2O[C@H](CO)[C@H](O)C2O)c(=O)[nH]1 (stereo partly drawn) [CBK201286] | 96% |
| O=C1CCN([C@H]2C[C@@H](O)[C@@H](CO)O2)C(=O)N1 [CBK201288] | 93.8% |
| COC1C(O)C(CO)OC1n1cnc2cnc(N)nc21 (stereo not drawn) [CBK201290] | 84.9% |
| Nc1nc2c([C@@H]3O[C@H](CO)[C@H](O)C3O)c[nH]c2c(=O)[nH]1 (stereo partly drawn) [CBK201292] | 94.5% |
| Nc1ccn([C@@H]2O[C@H](CO)[C@H](O)C2O)c(=S)n1 (stereo partly drawn) [CBK201293] | 90.9% |
| CN(C)c1nc2c(ncn2C2OC(CO)C(O)C2O)c(=O)[nH]1 (stereo not drawn) [CBK201295] | 96.3% |
| COC1C(O)C(CO)OC1n1cc(I)c(N)nc1=O (stereo not drawn) [CBK201296] | 92.2% |
| Nc1nc2c(nc(O)n2[C@@H]2O[C@H](CO)[C@H](O)C2O)c(=O)[nH]1 (stereo partly drawn) [CBK201297] | 88.5% |
| Cc1cc2cn([C@H]3C[C@@H](O)[C@@H](CO)O3)c(=O)nc2[nH]1 [CBK201302] | 100% |
| O=c1[nH]c(=O)n([C@@H]2O[C@H](CO)[C@H](O)C2O)cc1I (stereo partly drawn) [CBK201304] | 94.6% |
| CNc1ncnc2c1ncn2C1CC(O)C(CO)O1 (stereo not drawn) [CBK201308] | 96.7% |
| O=C(/C=C/c1cn(C2CC(O)C(CO)O2)c(=O)[nH]c1=O)NCCCCCCNC(=O)C(F)(F)F (stereo not drawn) [CBK201310] | 94.3% |
| CCNc1ccn([C@H]2C[C@@H](O)[C@@H](CO)O2)c(=O)n1 [CBK201311] | 95.2% |
| CNc1nc2c(ncn2C2CC(O)C(CO)O2)c(=O)[nH]1 (stereo not drawn) [CBK201312] | 100% |
| O=c1[nH]c(=O)n([C@H]2C[C@@H](O)[C@@H](CO)O2)cc1O [CBK201317] | 101% |
| Nc1ncc2ncn([C@@H]3O[C@H](CO)[C@H](O)C3O)c2n1 (stereo partly drawn) [CBK201318] | 92.8% |

| Compound | viability at 28.5 h, 10 µM |
| --- | --- |
| Cc1cn2c(=O)c3ncn([C@H]4C[C@@H](O)[C@@H](CO)O4)c3nc2[nH]1 [CBK201320] | 86.6% |
| Nc1ncnc2c1c(I)cn2[C@@H]1O[C@H](CO)[C@H](O)C1O (stereo partly drawn) [CBK201321] | 16.5% |
| Nc1nc(N)c([C@H]2C[C@@H](O)[C@@H](CO)O2)nc1Cl [CBK201326] | 103% |
| Cc1cn([C@H]2C[C@@H](O)[C@@H](CO)O2)c(N)nc1=O [CBK201327] | 100% |
| COC1C(O)C(CO)OC1n1cnc2c(=O)[nH]cnc21 (stereo not drawn) [CBK201328] | 91.3% |
| O=c1[nH]c(=O)c2ccn([C@H]3C[C@@H](O)[C@@H](CO)O3)c2[nH]1 [CBK201331] | 99% |
| O=c1[nH]c(=O)n([C@H]2C[C@@H](O)[C@@H](CO)O2)cc1CO [CBK201332] | 94% |
| COC(=O)/C=C/c1cn(C2OC(CO)C(O)C2O)c(=O)[nH]c1=O (stereo not drawn) [CBK201339] | 106% |
| O=C(O)C1CCN(C(=O)Cc2c[nH]c3ccccc23)CC1 [CBK202747] | 82.7% |
| COc1cccc(N2CCN(CC(=O)N3CCC(C(N)=O)CC3)CC2)c1 [CBK202881] | 106% |
| O=C(NCC1CCCO1)C1CCCN(C(=O)c2cc(-c3ccccn3)[nH]n2)C1 (stereo not drawn) [CBK210893] | 91.7% |
| CN(C)CCCNC(=O)C1CCN(c2nc3c(-c4ccccc4F)csc3c(=O)[nH]2)CC1 [CBK215438] | 93.7% |
| O=C(NCCN1CCOCC1)C1CCN(c2nc3c(-c4ccccc4F)csc3c(=O)[nH]2)CC1 [CBK215442] | 104% |
| COc1cccc(CNC(=O)C2CCCN(c3nc4c(-c5ccccc5)csc4c(=O)[nH]3)C2)c1 (stereo not drawn) [CBK215463] | 99.8% |
| O=C(NCc1ccncc1)C1CCCN(c2nc3c(-c4ccccc4)csc3c(=O)[nH]2)C1 (stereo not drawn) [CBK215493] | 107% |
| COCCNC(=O)C1CCCN(c2nc3c(-c4ccccc4)csc3c(=O)[nH]2)C1 (stereo not drawn) [CBK215497] | 114% |
| COCCCNC(=O)C1CCCN(c2nc3c(-c4ccccc4)csc3c(=O)[nH]2)C1 (stereo not drawn) [CBK215498] | 94% |
| CN(C)CCNC(=O)C1CCCN(c2nc3c(-c4ccccc4)csc3c(=O)[nH]2)C1 (stereo not drawn) [CBK215501] | 88.3% |
| CN(C)CCCNC(=O)C1CCCN(c2nc3c(-c4ccccc4)csc3c(=O)[nH]2)C1 (stereo not drawn) [CBK215504] | 94.6% |

same assay, conditions: human, hela cells, % viability, bulk resorufin, single well

| Compound | viability at 28.5 h, 10 µM |
| --- | --- |
| Nc1ncnc2c1ncn2[C@@H]1O[C@H](CO)[C@H](O)C1O (stereo partly drawn) [CBK201199] | 95.8% |
| NC(=O)C1=CN([C@@H]2O[C@H](CO)[C@H](O)C2O)C2N=CN=C(N)C12 (stereo partly drawn) [CBK201209] | 0.996% |
